This is an account of results in patent US20260007688A1, “SYNTHETIC ANALOGS OF CANNABINOL (CBN) FOR THE TREATMENT OF AGERELATED NEUROLOGICAL DISORDERS” (priority 2023, published 2026).

The subject of test [1] is HT22 cells. Briefly: Ferroptosis assay, RSL3-induced cell death, MTT viability. It counts as cell-based. As to conditions: Mus musculus, HT-22, 50 nM RSL3, 16 hours. The procedure: (§1) HT22 mouse hippocampal nerve cells were cultured in high-glucose Dulbecco's modified Eagle's medium (DMEM) (Invitrogen, Cat #11995065, Carlsbad, CA) supplemented with 10% fetal bovine serum (FBS) (Invitrogen, Carlsbad, CA) and 1% antibiotics including penicillin and streptomycin (Invitrogen Cat #10378016, Carlsbad, CA). Cell cultures were incubated at 37° C. in a fully humidified atmosphere containing 10% CO2.
(§2) The assay procedure described in Fischer et al. was used. Briefly, HT22 cells were seeded at 3,000 cells/well in 96-well tissue culture plates in DMEM plus 10% FBS and 1% antibiotics. After 24 hours of plating, the cells were pretreated with different concentrations of test compounds or a vehicle control for 1 hour followed by coincubation with 50-100 nM RSL3 or 500 nM erastin to induce the cell death cascade. After 16 hours of treatment, cell viability was measured by the MTT assay. Optical absorbance was measured at 570 nm on a SpectraMax M5 microplate reader. Samples were analyzed in eight to sixteen wells per independent experiment (n=8-16). Results are presented as the percentage of the controls with vehicle alone.

For test [2], the system named is HT22 cells. Nature of the test: Oxytosis assay, glutamate-induced cell death, MTT viability. It counts as cell-based. As to conditions: Mus musculus, HT-22, 5 mM glutamate, 16 hours. How it is done:
as §1
The assay procedure described in Fischer et al., “Old age-associated phenotypic screening for Alzheimer's disease drug candidates identifies sterubin as a potent neuroprotective compound from Yerba santa” Redox Biol. 21 (2019) 101089 was used. Briefly, HT22 cells were seeded at 3,000 cells/well in 96-well tissue culture plates in DMEM plus 10% FBS and 1% antibiotics. After 24 hours of plating, the cells were pretreated with different concentrations of the test compounds or a vehicle control for 1 hour followed by coincubation with 5 mM glutamate to initiate the cell death cascade. After 16 hours of treatment, cell viability was measured by the 3-(4,5-dimethylthiazol-2-yl)-2,5-diphenyltetrazolium bromide (MTT) assay. Optical absorbance was measured at 570 nm on a SpectraMax M5 microplate reader. Samples were analyzed in eight to sixteen wells per independent experiment (n=8-16). Results are presented as the percentage of the controls with vehicle alone.

The test system of test [3] is HT22 cells. Briefly: Ferroptosis assay, erastin-induced cell death, MTT viability. The format is cell-based. As to conditions: Mus musculus, HT-22, 500 nM erastin, 16 hours. How it is done: as §1, §2
The test system of another test is MC65 cells. Briefly: Intracellular amyloid toxicity assay. It counts as cell-based. As to conditions: Homo sapiens, 72 h, APP-C99 induced, day 3, MTT, read-out: Aβ toxicity EC50. An excerpt: Accumulation of intracellular amyloid beta peptide (Aβ) is considered by many as being a primary toxic event in AD. The human nerve cell line MC65 conditionally expresses the C99 fragment of the amyloid precursor protein (APP) leading to the accumulation of intracellular AB. The MC65 cells are routinely grown in the presence of tetracycline and, following its removal, the expression of C99 is induced and the cells die within three days because of the accumulation of intracellular, toxic protein aggregates.
For the intracellular amyloid toxicity assay the procedure described in Huang et al., “Intracellular amyloid toxicity induces oxytosis/ferroptosis regulated cell death” Cell Death Dis. 11 (10) (2020) 828 was used. Briefly, MC65 cells were regularly grown in high glucose DMEM supplemented with 10% FCS and 2 μg/ml tetracycline. For the assay, cells were dissociated and plated at 1×10^5 cells per well in 24 well tissue culture plates. After overnight cultivation in growth medium, the cells were washed three times with phosphate buffered saline containing calcium and magnesium and then switched to Opti-minimal essential media (Opti-MEM, Invitrogen) in the presence (no induction) or absence (APP-C99 induced) of 2 μg/ml tetracycline in the presence or absence different concentrations of the indicated compounds. At day 3, the control cells in the absence of tetracycline were dead, and cell viability was determined by the MTT assay. Optical absorbance was measured at 570 nm on a SpectraMax M5 microplate reader. Samples were analyzed in three wells per independent experiment (n=3). Results are presented as EC50.

Test [4] concerns HT22 cells. Nature of the test: Seahorse XF real-time ATP rate assay. The format is cell-based, mouse. The settings on record: 5 μM, 16 hours. How it is done:
The assay procedure described in Liang et al., “Cannabinol inhibits oxytosis/ferroptosis by directly targeting mitochondria independently of cannabinoid receptors” Free Radic. Biol. Med. 180 (2022) 33-51 was used. Briefly, ATP production rates were assayed with a XF Real-Time ATP Rate Assay Kit using a Seahorse Xfe96 Extracellular Flux Analyzer (Seahorse Bioscience, North Billerica, MA). Complete Seahorse XF DMEM assay medium was supplemented with 10 mM glucose, 1 mM pyruvate and 2 mM L-glutamine, at pH 7.4. Mitochondrial ETC inhibitors were used at the following concentrations: 1.5 μM oligomycin and 0.5 μM of a 1:1 mixture of rotenone and antimycin A. Analyses were conducted using Wave software and XF Report Generators (Agilent Technologies). The sensor cartridge for the Xfe analyzer was hydrated overnight at 37° C. before the experiment. Data were normalized for total protein/well. Each condition was analyzed in 20-40 wells per independent experiment (n=20-40). FIGS. 12 and 13 provide the results.
For HT22 cells, 2,000 cells/well were seeded onto the Seahorse Xfe96 plates under normal culture condition as described above. The next day, cells were treated with test compounds at the desired concentrations and incubated for 16 hours. Immediately before the assay, the culture medium in the plates was replaced with complete Seahorse XF DMEM assay medium. […]

In test [5] the test system is HT22 cells. Nature of the test: Seahorse XF mitochondrial stress test (OCR). As to conditions: 16 hours, compared with the control cells. It counts as cell-based, mouse.
The test system of test [6] is HT22 cells. Briefly: Mitochondrial reactive oxygen species measurement (MitoSOX Red). It counts as cell-based, mouse. As to conditions: 5 μM compound + 50 nM RSL3. The procedure: The assay procedure described in Liang et al. was used. Briefly, HT22 cells were seeded onto 96-well black walled plates at a density of 3,000 cells/well in DMEM supplemented with 10% FBS and 1% antibiotics. After the desired treatments, the mitochondrial superoxide ROS were detected with MitoSOX Red reagent (Ex/Em=510/580 nm). Experiments were performed according to the manufacturer's instructions. Fluorescence was measured on a SpectraMax M5 microplate reader. Data were normalized for total protein/well. Each condition was analyzed in eight wells per independent experiment (n=8). Results are presented as the percentage of the controls with vehicle alone. Results were verified by live-cell imaging under a fluorescence microscope. FIG. 14 provides the results.

Test [7] has as its system HT22 cells. Nature of the test: Lipid peroxidation measurement (C11-BODIPY). The format is cell-based, mouse. As to conditions: compound + RSL3, 16 hours, p<0.0001. The procedure: The assay procedures were adapted from the procedures disclosed by Soriano-Castell et al., “Profiling the chemical nature of anti-oxytotic/ferroptotic compounds with phenotypic screening” Free Radic. Biol. Med. 177 (2021) 313-325 and Liang et al. “Cannabinol inhibits oxytosis/ferroptosis by directly targeting mitochondria independently of cannabinoid receptors” Free Radic. Biol. Med. 180 (2022) 33-51. Briefly, HT22 cells were seeded onto 96-well black walled plates at a density of 3,000 cells/well in DMEM supplemented with 10% FBS and 1% antibiotics. After the desired treatments for 16 hours, cells were labeled with 2.5 μM C11-BODIPY 581/591 (oxidized form Ex/Em=488/520 nm) at 37° C. for 2 hours. Experiments were performed according to the manufacturer's instructions. Fluorescence was measured on a SpectraMax M5 microplate reader. Data were normalized for total protein/well. Each condition was analyzed in eight wells per independent experiment (n=8). Results were verified by live-cell imaging under a fluorescence microscope.

In test [8] the test system is HT22 cells. Briefly: Microscopic imaging of cell morphology after RSL3. It counts as cell-based, mouse. As to conditions: 5 μM compound + 50 nM RSL3, 16 hours. From the text: Micrographs show the representative morphological characteristics of the cell cultures under a given condition of 8 experimental replicates. Scale bar=200 μm.
Microscopy. Brightfield, phase contrast, and fluorescence microscopic images were acquired on an IX51 inverted microscope (Olympus Corporation, Tokyo, Japan) with an INFINITY3 monochrome CCD camera (Teledyne Lumenera, Ontario, Canada). Super-resolution microscopic images were acquired on a Zeiss LSM 880 rear port laser scanning confocal and Airyscan FAST microscope (Carl-Zeiss, Oberkochen, Germany). Image processing and analysis were performed with microscope software packages ZEN Black and ImageJ/Fiji.

A further test has as its system Drosophila melanogaster. Briefly: Drosophila mild traumatic brain injury (mTBI) model. It counts as in vivo. As to conditions: 3.0 μM in food, 3 weeks after mTBI (10×); vehicle 70.2%.

Usually EC50 stands for the concentration giving half of the maximal effect. On to `CCCCCc1cc(O)c2c(c1)OC(C)(C)c1ccc(C)cc1-2` [CBN, Cannabinol], for which the EC50 was 690 nM in the test with HT22 cells [1], 1890 nM in the test with HT22 cells [2], 2330 nM with HT22 cells [3] and 14 nM in the test with MC65 cells. In addition, in the test with HT22 cells [4] (compared to the control), the “total ATP production rate” value is recorded as “slightly but significantly decreased”. Further, the “increase in the OXPHOS contribution to ATP production” value with HT22 cells [4] (relative to the control) is “approximately 15%”. The “maximal and spare mitochondrial respiration (OCR)” value with HT22 cells [5] is reported as “partial but significant decrease”. Moreover, the “RSL3-induced mtROS production” value with HT22 cells [6] is “significantly suppressed”. The “RSL3-induced increase in intracellular LPO” value with HT22 cells [7] is “significantly suppressed”. In the test with HT22 cells [8], the “prevention of RSL3-induced morphological deteriorations” value is listed as “effectively prevented”. Also, in the test with Drosophila melanogaster, the “3-week mortality index (MI), percentage of dead flies” value was found to be 60.5%.
